Patent US20050244360A1, “Cosmetic composition for greasy skin care, containing a carboxylic fatty acid or a derivative thereof” (L'OREAL, priority 2003, published 2005)

Columns and labels:
sebum excretion = settings: topical 20% azelaic acid gel, individuals with physiological acne; cited from earlier work
human keratinocytes = settings: concentrations of the order of 1 mM; cited from earlier work
SZ 95 sebocytes = assay: Tolerability: cytotoxicity by production of LDH in the culture medium; assay type: cell-based, human; settings: 1 μM
Procedure: The tolerability of azelaic acid was measured by measuring the cytotoxicty of the product using SZ 95 sebocytes (Zouboulis, Seltmann et al., 1999). The test conditions were the same as those given in Example 1. The cytotoxicity was measured by the production of LDH in the culture medium.

cutaneous micrococcaceae = settings: topical gel containing 20% azelaic acid, male subjects with clinical acne; cited from earlier work
Propionibacterium sp = settings: topical gel containing 20% azelaic acid, male subjects with clinical acne; cited from earlier work
excreted sebum = settings: doses used to treat acne (SKINOREN); subjects with acne, seborrheic skin without acne, normoseborrheic; cited from earlier work
[1] = system: sebocytes from an immortalized human line; assay: Reduction of lipogenesis: lipids produced by immortalized human sebocytes, RED NILE dye fluorescence; assay type: cell-based; settings: for QUANTITY OF LIPIDS MEASURED / REDUCTION IN LIPOGENESIS/CONTROL: 2 days of treatment; for QUANTITY OF LIPIDS MEASURED: control = 100; for REDUCTION IN LIPOGENESIS/CONTROL: vs culture medium control
Procedure: The test which was developed consisted of measuring, after 2 days of treatment, the quantity of lipids produced by sebocytes from an immortalized human line (in the presence or absence of active agents). The fluorescence emitted by RED NILE dye was measured at two distinct wavelengths to quantify the amount of characteristic neutral lipids of the sebum. Glucocorticoids are known to reduce the production of sebum in non […] subjects (Leveque, J. L. et al., (1991)). Thus, cortisol was selected as a reference, while the culture medium alone was selected as the control (no supplemental excipient was added either to the cortisol or to the azelaic acid, these latter being dissolved in the culture medium under the test conditions). […] Its activity was moderate compared with the pharmaceutical reference. Nevertheless, it should have a significant cosmetic action in a suitable formulation, if necessary by making repeated applications.

sebum production = settings: cited from earlier work

Compound	effect on sebum excretion (in words) (sebum excretion)	effect on proliferation of human keratinocytes (in words) (human keratinocytes)	sebocyte survival (in words) (SZ 95 sebocytes)	LDH VARIATION/CONTROL (SZ 95 sebocytes; same conditions as Example 1) [%]	reduction of the number of cutaneous micrococcaceae, factor (cutaneous micrococcaceae)	reduction of the number of Propionibacterium sp, factor (Propionibacterium sp)	effect on quantity and composition of the excreted sebum (in words) (excreted sebum)	effect on sebum production by sebocytes (in words) ([1]; 1 μM)	QUANTITY OF LIPIDS MEASURED ([1]; 1 μM)	REDUCTION IN LIPOGENESIS/CONTROL ([1]; 1 μM) [%]	reduction in lipid secretion ([1]; 1 μM, model immortalized culture of human sebocytes) [%]	activity compared with the pharmaceutical reference (cortisol) ([1]; azelaic acid 1 μM vs cortisol 0.1 μM)	ability to reduce sebum production (in words) (sebum production)	QUANTITY OF LIPIDS MEASURED ([1]; 0.1 μM)	REDUCTION IN LIPOGENESIS/CONTROL ([1]; 0.1 μM) [%]
O=C(O)CCCCCCCC(=O)O [Azelaic acid, azelaic acid]	did not cause a significant modification in sebum excretion	reduces the proliferation of human keratinocytes	improves sebocyte survival	−20	224	30	did not modify either the quantity or the composition of the excreted sebum	inhibits sebum production	93	−7	7	moderate	inability of azelaic acid to reduce sebum production	–	–
C[C@]12CCC(=O)C=C1CC[C@@H]1[C@@H]2[C@@H](O)C[C@@]2(C)[C@H]1CC[C@]2(O)C(=O)CO [Cortisol]	–	–	–	–	–	–	–	–	–	–	–	–	–	71	−29
